Experimental findings from US20100035878A1, “INHIBITORS OF C-JUN N-TERMINAL KINASES FOR THE TREATMENT OF NEURODEGENERATIVE DISORDERS RELATING TO APOPTOSIS AND/OR INFLAMMATION” (EISAI R & D MANAGEMENT CO., LTD., priority 2005, published 2010) are described below.

pIC50: −log10 of the molar value. Bounds are passed on as bounds.

Chain of JNK3 (P53779 whole entry): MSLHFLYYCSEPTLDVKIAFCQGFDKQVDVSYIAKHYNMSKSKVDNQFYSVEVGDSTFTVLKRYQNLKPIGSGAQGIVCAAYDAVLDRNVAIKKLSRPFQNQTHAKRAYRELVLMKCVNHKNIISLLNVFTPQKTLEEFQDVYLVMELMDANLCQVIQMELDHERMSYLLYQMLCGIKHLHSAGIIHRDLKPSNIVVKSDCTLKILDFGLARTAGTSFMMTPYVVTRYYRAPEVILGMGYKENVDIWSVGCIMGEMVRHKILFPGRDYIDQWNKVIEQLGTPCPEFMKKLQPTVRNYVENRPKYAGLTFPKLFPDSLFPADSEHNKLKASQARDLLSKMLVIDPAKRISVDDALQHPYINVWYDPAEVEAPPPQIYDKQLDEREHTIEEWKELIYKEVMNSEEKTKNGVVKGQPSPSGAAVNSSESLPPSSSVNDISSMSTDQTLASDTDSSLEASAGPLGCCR

In the test the target is JNK3 (Homo sapiens, UniProt P53779). The experiment in a line: JNK3 SPA assay (phosphorylation of GST-c-Jun). Format: biochemical. The settings on record: GST-c-Jun substrate, [γ-33P] ATP, 30 minutes at room temperature. The procedure:
JNK1, JNK2, JNK3-SPA Assay
• 1. Compound is dissolved in DMSO to a convenient concentration and this is diluted in 10% DMSO to a five times concentrate of the desired starting concentration (frequently 1:100). • 2. 10 μl of 500 mM EDTA is added to alternative wells of the Opti-plate row, which will receive kinase reaction plus DMSO. This creates the negative control. • 3. For the JNK2 and JNK3 assay, compounds are prepared in six 2-fold dilutions with water and each concentration is tested in duplicate. For the JNK1 assay compounds are prepared in four 5-fold dilutions with water which are tested in triplicate. Controls are treated identically. • 4. 20 μl per well of each compound concentration is transferred to an Opti-plate, in duplicate. • 5. 30 μl (JNK2/3 SPA) or 50 μl (JNK1 SPA) of substrate solution (25 mM HEPES pH 7.5, 10 mM magnesium acetate with 3.33 µM ATP (JNK2/3) or 2 µM ATP (JNK1), approximately 7.5 kBq [γ-^33P] ATP, GST-c-Jun, in water) is added to each well. • 6. 50 μl (JNK2/3 SPA) or 30 μl (JNK1 SPA) of kinase solution (JNK in 25 mM HEPES pH 7.5, 10 mM Mg Acetate) is added to each well.
• 7. The plate is incubated for 30 minutes at room temperature. • 8. 100 μl of bead/stop solution is added to each well (5 mg/ml glutathione-PVT-SPA beads, 40 mM ATP in PBS). • 9. Plates are sealed and incubated for 30 minutes at room temperature, centrifuged for 10 minutes at 2500 g and counted. • 10. The IC50 values are calculated as the concentration of the compound being tested at which the phosphorylation of c-Jun is decreased to 50% of the control value.
In turn, `CCCCOc1cnc2[nH]cc(-c3cnn(C)c3)c2c1` gave a pIC50 of more than 6.30.
`COc1cnc2[nH]cc(-c3cn[nH]c3)c2c1` had a negative-log IC50 (pIC50) of more than 6.00.
As for `O=C(O)c1ccccc1C(=O)Nc1cnc2[nH]cc(-c3cncs3)c2c1`, the figure is more than 6.70.
`O=C(Nc1cnc2[nH]cc(-c3ccoc3)c2c1)c1ccc(F)cc1`: the pIC50 is more than 6.30.
As for `Cc1ccccc1Oc1cnc2[nH]cc(-c3cnn(C)c3)c2c1`, the figure is more than 6.30; as for `Cn1cc(-c2c[nH]c3ncc(OCc4ccccc4)cc23)cn1`, more than 6.30.
As for `Cc1cccc(Oc2cnc3[nH]cc(-c4cnn(C)c4)c3c2)c1`, the figure is more than 6.00; as for `C#CCOc1cnc2[nH]cc(-c3cnn(C)c3)c2c1`, more than 6.30.
As for `CCOc1cnc2[nH]cc(-c3cnn(C)c3)c2c1`, the figure is more than 6.30; as for `COCCOc1cnc2[nH]cc(-c3cnn(C)c3)c2c1`, more than 5.70; as for `Cn1cc(-c2c[nH]c3ncc(OC4CCCC4)cc23)cn1`, more than 6.70.
Consider `Cc1ccc(Oc2cnc3[nH]cc(-c4cnn(C)c4)c3c2)cc1`, for which the pIC50 is more than 6.30.
`Cn1cc(-c2c[nH]c3ncc(OCCc4ccccc4)cc23)cn1`: the pIC50 was more than 6.30.
For `Nc1cnc2[nH]cc(-c3cn[nH]c3)c2c1` the value was more than 6.30; for `CCCCSc1cnc2[nH]cc(-c3cnn(C)c3)c2c1`, more than 7.00.
As for `[O-][S+](c1ccccc1)c1cnc2[nH]cc(-c3cn[nH]c3)c2c1` (centres unmarked), the figure is more than 6.30; as for `CCCC[S+]([O-])c1cnc2[nH]cc(-c3cn[nH]c3)c2c1` (centres unmarked), more than 6.00; as for `Cn1cc(-c2c[nH]c3ncc(CN4CCc5ccccc54)cc23)cn1`, more than 6.30.
The compound `Cn1cc(-c2c[nH]c3ncc(Cn4ccc5ccccc54)cc23)cn1` had a pIC50 of more than 6.30.
In the case of `CC(C)CCCc1cnc2[nH]cc(-c3cnn(C)c3)c2c1`, the pIC50 was more than 6.70.
For `CCCCCCCCc1cnc2[nH]cc(-c3cnn(C)c3)c2c1` the value was more than 7.00.
Consider `CCCCCc1cnc2[nH]cc(-c3cnn(C)c3)c2c1`, for which the pIC50 is more than 6.70.
For `Cn1cc(-c2c[nH]c3ncc(CCCCO)cc23)cn1` the value was more than 6.00; for `Cn1cc(-c2c[nH]c3ncc(OCC4CCCCC4)cc23)cn1`, more than 6.30; for `CC(C)Cc1cnc2[nH]cc(-c3csc(C(=O)N4CCCCC4)n3)c2c1`, more than 6.70.
In the case of `CCCCCc1cnc2[nH]cc(-c3csc(C(=O)N(C)C)n3)c2c1`, the pIC50 was more than 6.30.
In the case of `CCCCCc1cnc2[nH]cc(-c3csc(C(=O)N4CCOCC4)n3)c2c1`, the pIC50 is more than 6.30.
For `CN(C)C1CCC(Cc2cnc3[nH]cc(-c4cnn(C)c4)c3c2)CC1` (centres unmarked) the value was more than 6.70; for `CN1CCN(C2CCC(Cc3cnc4[nH]cc(-c5cnn(C)c5)c4c3)CC2)CC1` (centres unmarked), more than 6.70; for `CC(C)Cc1cnc2[nH]cc(-c3cnn(CCN4CCOCC4)c3)c2c1`, more than 6.30.
For `Cn1cc(-c2c[nH]c3ncc(CC4CCCC4)cc23)cn1` the value was more than 7.00.
Take `Cn1cc(-c2c[nH]c3ncc(CC4=CCCC4)cc23)cn1`: the pIC50 is more than 6.70.
For `Cn1cc(-c2c[nH]c3ncc(CC4CCN(Cc5ccccc5)CC4)cc23)cn1` the value was more than 6.70; for `Cn1cc(-c2c[nH]c3ncc(Cc4ccccc4)cc23)cn1`, more than 6.70.
`c1ccc(Sc2cnc3[nH]cc(-c4cn[nH]c4)c3c2)cc1` showed a negative-log IC50 (pIC50) of more than 6.70.
For `CC(C)(C)OC(=O)Nc1cnc2[nH]cc(-c3cn[nH]c3)c2c1` the value was more than 6.00; for `Cn1cc(-c2c[nH]c3ncc(Oc4ccccc4)cc23)cn1`, more than 6.30.
As for `CCOC(=O)COc1cnc2[nH]cc(-c3cnn(C)c3)c2c1`, the figure is more than 5.70.
`CCCCCCOc1cnc2[nH]cc(-c3cnn(C)c3)c2c1` had a pIC50 of more than 6.30.
Consider `CCCCCOc1cnc2[nH]cc(-c3cnn(C)c3)c2c1`, for which the negative-log IC50 (pIC50) is more than 6.70.
The compound `CCCOc1cnc2[nH]cc(-c3cnn(C)c3)c2c1` gave a pIC50 of more than 6.30.
As for `C=CCOc1cnc2[nH]cc(-c3cnn(C)c3)c2c1`, the figure is more than 6.30; as for `Cn1cc(-c2c[nH]c3ncc(Oc4ccc(F)cc4)cc23)cn1`, more than 6.00.
Compound `Oc1cnc2[nH]cc(-c3cn[nH]c3)c2c1` gave a pIC50 of more than 5.70.
For `CN(C)c1ccc(Oc2cnc3[nH]cc(-c4cnn(C)c4)c3c2)cc1`, the pIC50 is more than 6.30.
As for `CC(C)Cc1cnc2[nH]cc(-c3csc(C(=O)N4CCN(C)CC4)n3)c2c1`, the figure is more than 7.00.
As for `CN(C)c1cccc(Sc2cnc3[nH]cc(-c4cnn(C)c4)c3c2)c1`, the figure is more than 6.70; as for `CCCCS(=O)(=O)c1cnc2[nH]cc(-c3cn[nH]c3)c2c1`, more than 6.00.
`Cn1cc(-c2c[nH]c3ncc(CC4CCC(O)CC4)cc23)cn1` (centres unmarked) showed a pIC50 of more than 7.00.
Compound `Cn1cc(-c2c[nH]c3ncc(CCC4CCCCC4)cc23)cn1` showed a pIC50 of more than 6.70.
The compound `Cn1cc(-c2c[nH]c3ncc(CN4CCCCC4)cc23)cn1` had a pIC50 of more than 6.00.
As for `CCCCCCCc1cnc2[nH]cc(-c3cnn(C)c3)c2c1`, the figure is more than 7.00; as for `CCCc1cnc2[nH]cc(-c3cnn(C)c3)c2c1`, more than 7.00.
In turn, `Cn1cc(-c2c[nH]c3ncc(CCC(C)(C)C)cc23)cn1` gave a pIC50 of more than 6.30.
`CC(C)Cc1cnc2[nH]cc(-c3cnn(C)c3)c2c1` gave a pIC50 of more than 7.00.
The compound `Cn1cc(-c2c[nH]c3ncc(OCC4CC4)cc23)cn1` had a pIC50 of more than 6.30.
As for `CC(C)Cc1cnc2[nH]cc(-c3csc(C4CCN(C)CC4)n3)c2c1`, the figure is more than 6.00; as for `CC(C)Cc1cnc2[nH]cc(-c3csc(C(=O)N4CCOCC4)n3)c2c1`, more than 6.70.
`CCCCCc1cnc2[nH]cc(-c3csc(C(=O)N4CCCCC4)n3)c2c1` showed a pIC50 of more than 6.70.
As for `CCCCCc1cnc2[nH]cc(-c3csc(C(=O)N4CCN(C)CC4)n3)c2c1`, the figure is more than 6.70; as for `Cn1cc(-c2c[nH]c3ncc(CC4CCC(N5CCOCC5)CC4)cc23)cn1` (centres unmarked), more than 6.70.
`Cn1cc(-c2c[nH]c3ncc(CC4CCC(=O)CC4)cc23)cn1` showed a pIC50 of more than 6.70.
In turn, `Cn1cc(-c2c[nH]c3ncc(CC4CCCCC4)cc23)cn1` gave a pIC50 of more than 7.00.
For `Cn1cc(-c2c[nH]c3ncc(CC4CCC4)cc23)cn1` the value was more than 7.00.
As for `Cn1cc(-c2c[nH]c3ncc(CC4=CCCCC4)cc23)cn1`, the figure is more than 6.70.

For orientation: pIC50 means the negative decadic logarithm of the IC50, by convention in mol/L. Low values mean a high IC50, high ones a low IC50.
